Values after ≈ are worked out from the molar mass of the structure shown.
Legend:
Assay in all cases: Minimal inhibitory concentration test (MIC-Test) of lincomycin, serial dilution in liquid culture
[1] = tested on: DM1933_ΔlmrB::EcoRV/pVWEx1; assay type: cell-based, Corynebacterium glutamicum; conditions: 20 h
Procedure: For this purpose a first well of a microliter plate was filled with 360 μl of BHI medium supplemented with 0.3 mM IPTG and 250 μg/ml lincomycin-hydrochloride. A volume of 180 μl was removed and placed into a second well previously filled with 180 μl BHI medium supplemented with 0.3 mM IPTG. Thus a second well containing BHI medium supplemented with 0.3 mM IPTG and 125 μg/ml lincomycin-hydrochloride was prepared. From said second well 180 ∞l were removed and placed into a third well previously filled with 180 μl BHI medium supplemented with 0.3 mM IPTG. These dilution steps were repeated several times to cover the concentration range mentioned above. Thus wells containing 180 μl of the respective test medium were obtained. […]
(§1) A preculture of the strain to be tested was made in BHI medium (as described under cultivation) supplemented with 250 μg/ml kanamycin in case of plasmid containing strains). […] After 20 h the optical densities were measured. […]
(§2) The MIC's of lincomycin for strains ATCC13032/pVWEx1; ATCC13032/pVWEx1_lmrB^ATCC14067; DM1933_ΔlmrB::EcoRV/pVWEx1 and DM1933_ΔlmrB::EcoRV/pVWEx1_lmrB^ATCC14067 constructed in example 8 were determined as described in materials and methods.
(§3) The MIC's of lincomycin for strains DM1933_ΔlmrB::EcoRV/pVWEx1 and DM1933_ΔlmrB::EcoRV/pVWEx1_lmrB^DM1547 constructed in examples 8 and 11 were determined as described in materials and methods.

[2] = tested on: DM1933_ΔlmrB::EcoRV/pVWEx1_lmrB^DM1547; assay type: cell-based; conditions: Corynebacterium glutamicum, 20 h
Procedure: (§4) For this purpose a first well of a microliter plate was filled with 360 μl of BHI medium supplemented with 0.3 mM IPTG and 250 μg/ml lincomycin-hydrochloride. A volume of 180 μl was removed and placed into a second well previously filled with 180 μl BHI medium supplemented with 0.3 mM IPTG. Thus a second well containing BHI medium supplemented with 0.3 mM IPTG and 125 μg/ml lincomycin-hydrochloride was prepared. From said second well 180 ∞l were removed and placed into a third well previously filled with 180 μl BHI medium supplemented with 0.3 mM IPTG. These dilution steps were repeated several times to cover the concentration range mentioned above. Thus wells containing 180 μl of the respective test medium were obtained. A control medium without lincomycin-hydrochloride was included in the test procedure.
as §1, with “strains). The preculture was centrifuged and the cell pellet resuspended in 0.9% (w/v) NaCl solution to give an OD660 of 1.0.” for “strains).”
as §3

[3] = tested on: DM1933_ΔlmrB::EcoRV/pVWEx1_lmrB^ATCC14067; assay type: cell-based; conditions: Corynebacterium glutamicum, ATCC14067, 20 h
Procedure: as §4
(§5) A preculture of the strain to be tested was made in BHI medium (as described under cultivation) supplemented with 250 μg/ml kanamycin in case of plasmid containing strains). The preculture was centrifuged and the cell pellet resuspended in 0.9% (w/v) NaCl solution to give an OD660 of 1.0. A volume of 20 μl of the suspension was used to inoculate the test medium contained in the wells. The micro titer plate was incubated at 300 rpm and 33° C. in an Infors HT Multitron standard incubator shaker from Infors GmbH (Bottmingen, Switzerland). After 20 h the optical densities were measured. The test medium having the lowest concentration of lincomycin-hydrochloride preventing growth of the culture is given as MIC.
as §2

[4] = tested on: ATCC13032/pVWEx1_lmrB^ATCC14067; assay type: cell-based; conditions: Corynebacterium glutamicum, 20 h
Procedure: as §4, §5, §2

ATCC13032/pVWEx1 = assay type: cell-based; conditions: Corynebacterium glutamicum; strain ATCC13032/pVWEx1; as lincomycin-hydrochloride; BHI medium with 0.3 mM IPTG, 20 h, 33° C.
Procedure: as §4, §5, §2

CCC[C@@H]1C[C@@H](C(=O)N[C@@H]([C@H]2O[C@H](SC)[C@H](O)[C@@H](O)[C@H]2O)[C@@H](C)O)N(C)C1 [lincomycin, Lincomycin]
MIC ([1]; Corynebacterium glutamicum): 7.8 µg/mL (≈ 19.2 µM) | MIC ([1]; strain DM1933_DlmrB/pVWEx1 (Table 25), as lincomycin-hydrochloride, BHI medium with 0.3 mM IPTG, 33° C.): 7.8 µg/mL (≈ 19.2 µM) | MIC [2]: 62.5 µg/mL (≈ 154 µM) | MIC [3]: 62.5 µg/mL (≈ 154 µM) | MIC [4]: 125 µg/mL (≈ 307 µM) | MIC (ATCC13032/pVWEx1): 15.6 µg/mL (≈ 38.4 µM)

— patent US20190106721A1, “Method for the fermentative production of L-amino acids” (priority 2017, published 2019)
